The structures appear in SMILES notation. A value given as a limit tells only on which side of the number the result lay.

For data set [1], the system named is Human immunodeficiency virus type 1 BH10. Kind of data set: Inhibition of wild type recombinant HIV-1 subtype B BH10 p66/p51 reverse transcriptase heterodimer expressed in Escherichia coli BL21 (DE3) assessed as inhibition of dTTP incorporation on poly(rA)-oligo(dT) template primer duplex at 10 uM preincubated with enzyme for 2 mins followed by incubation with poly(A)-oligo(dT) templates for 2 hrs by flourescence assay method. As to conditions: time 122.0 min.

Data set [2] has the same test system. Put plainly: Inhibition of wild type recombinant HIV-1 subtype B BH10 p66/p51 reverse transcriptase heterodimer expressed in Escherichia coli BL21 (DE3) assessed as inhibition of dTTP incorporation on poly(rA)-oligo(dT) template primer duplex at 100 uM preincubated with enzyme for 2 mins followed by incubation with poly(A)-oligo(dT) templates for 2 hrs by flourescence assay method. As to conditions: time 122.0 min.

The nature of data set [3]: Anti-HIV-1 activity against HTLV-3B infected in human MT2 cells assessed as reduction in syncytium formation by measuring reduction in p24 antigen production measured after 4 days by ELISA method. It is filed as functional, cell-based. As to conditions: Human immunodeficiency virus 1, HTLV-3B, MT2, 96 h.
Data set [4] can be described thus: Cytotoxicity against human MT2 cells assessed as reduction in cell viability measured after 4 days by Trypan blue assay. The data set is classed as cell-based. As to conditions: time 4 day.
Data set [5] has as its system Human immunodeficiency virus type 1 BH10. Put plainly: Inhibition of recombinant HIV-1 subtype B BH10 p66/p51 reverse transcriptase heterodimer K103N mutant assessed as inhibition of dTTP incorporation on poly(rA)-oligo(dT) template primer duplex at 50 uM preincubated with enzyme for 2 mins followed by incubation with poly(A)-oligo(dT) templates for 2 hrs by flourescence assay method. The note with it: time 122.0 min.

The nature of data set [6]: Inhibition of wild type recombinant HIV-1 subtype B BH10 p66/p51 reverse transcriptase heterodimer expressed in Escherichia coli BL21 (DE3) assessed as inhibition of dTTP incorporation on poly(rA)-oligo(dT) template primer duplex preincubated with enzyme for 2 mins followed by incubation with poly(A)-oligo(dT) templates for 2 hrs by flourescence assay method. Also noted: species or system Human immunodeficiency virus type 1 BH10.

In data set [7] the test system is Human immunodeficiency virus type 1 BH10. Put plainly: Selectivity for inhibition of wild type recombinant HIV-1 subtype B BH10 p66/p51 reverse transcriptase heterodimer expressed in Escherichia coli BL21 (DE3) at 50 uM over inhibition of recombinant HIV-1 subtype B BH10 p66/p51 reverse transcriptase heterodimer K103N mutant at 50 uM by fluorescence based assay.

The nature of data set [8]: Selectivity index, ratio of CC50 for human MT2 cells to EC50 for anti-HIV-1 activity against HTLV-3B infected in human MT2 cells. As to conditions: read-out: Ratio CC50/EC50. The data set is classed as toxicity, cell-based.

One may read the inhibition as the share of the control response that was lost under treatment. Turning to `CC(C)OC(=O)CCc1nc2ccccc2nc1O`, the inhibition in data set [1] came out at 21%; in data set [2], 25%.
Usually EC50 stands for the midpoint of the concentration-response curve. By CC50 is commonly meant the concentration at which the toxic effect on the cells reaches its halfway point. As to `CC(C)COC(=O)N1CC(=O)Nc2ccccc21`, the inhibition in data set [1] was found to be 20%; in data set [2], 46%. Besides, in data set [3], the 50% effective concentration (EC50) was greater than 10 µM. Also, the cytotoxic concentration (CC50) at 96 h in data set [4] was determined as 262 µM.
Broadly, the IC50 is the midpoint of a concentration-inhibition curve. Turning to `CC(C)COC(=O)N1c2ccccc2NC(=O)[C@@H]1CC(C)C`, the inhibition was 20% in data set [5], 22% in data set [1] and 51% in data set [2]. In addition, the IC50 in data set [6] came to 67 µM. Moreover, the Selectivity ratio in data set [7] amounted to 3.
Take `O=C1CN(C(=O)c2ccccc2)c2ccccc2N1`: the inhibition in data set [1] was found to be 14%; in data set [2], 33%.
As to `Cc1ccnc2c1NC(=O)c1cccnc1N2C1CC1` [NEVIRAPINE], the selectivity ratio in data set [8] came to 14400. The inhibition is 50% in data set [5], 91% in data set [1] and 98% in data set [2]. In data set [6], the IC50 worked out at 0.13 µM. For the same molecule, the half-maximal effective concentration (EC50) in data set [3] came out at 0.0067 µM. Besides, the CC50 at 96 h in data set [4] was 96.2 µM. Moreover, the Selectivity ratio in data set [7] turned out to be 2.
For the molecule `O=C1CN(S(=O)(=O)c2ccccc2)c2ccccc2N1`, the inhibition in data set [1] worked out at 14%; in data set [2], 12%.
In the case of `CC(C)Cc1nc2ccccc2[nH]c1=O`, the inhibition in data set [5] stood at 5%; in data set [1], 15%; in data set [2], 73%. Besides, the 50% inhibitory concentration (IC50) in data set [6] was 23 µM. Besides, in data set [3], the EC50 is greater than 10 µM. The CC50 at 96 h in data set [4] was 134 µM. Further, the Selectivity ratio in data set [7] amounted to 16.
Consider `O=C1CN(C(=O)CCCl)c2ccccc2N1`, for which the figures for the inhibition in data set [1] and in data set [2] were 12% and 26%, respectively.
Regarding `CC(C)[C@H]1C(=O)Nc2ccccc2N1C(=O)CCCl`, the inhibition in data set [1] and in data set [2] was 7% throughout.
Regarding `CCOC(=O)CCc1nc2ccccc2nc1O`, the inhibition came to 15% in data set [1] and 12% in data set [2].
The corresponding values for `CC(C)c1nc2ccccc2[nH]c1=O` are 12% and 17%.
Turning to `COC(=O)CCc1nc2ccccc2nc1O`, the inhibition in data set [1] was 8%; in data set [2], 23%.
As to `CC(C)C[C@H]1C(=O)Nc2ccccc2N1C(=O)CCCl`, the figures for the inhibition in data set [1] and in data set [2] were 10% and 20%, respectively.
Taken in the same sequence, the figures for `Cc1nc2ccccc2nc1O` were 3% and 1%.
In the case of `CCC(=O)N1CC(=O)Nc2ccccc21`, in data set [8], the selectivity ratio came to 31800. The results for the inhibition in data set [5], in data set [1] and in data set [2] were 47%, 91% and 99%, respectively. The IC50 in data set [6] is 0.63 µM. Further, in data set [3], the EC50 stood at 0.0031 µM. In addition, the CC50 at 96 h in data set [4] amounted to 98.6 µM. Also, the Selectivity ratio in data set [7] amounted to 2.
Take `O=C(O)CCc1nc2ccccc2[nH]c1=O`: the inhibition was 20% in data set [1] and 15% in data set [2].
Taken in the same sequence, the figures for `CCC(=O)N1c2ccccc2NC(=O)[C@@H]1C` were 7% and 23%.
Taken in the same sequence, the figures for `CC(C)OC(=O)N1CC(=O)Nc2ccccc21` were 20% and 19%.
Taken in the same sequence, the figures for `CC(C)[C@H]1C(=O)Nc2ccccc2N1C(=O)CCl` were 5% and 12%.
For `Oc1nc2ccccc2nc1O`, the inhibition in data set [1] was 8%; in data set [2], 1%.
The corresponding values for `Oc1nc2ccccc2nc1Cc1ccccc1` are 10% and 26%.
In the case of `C[C@H]1CNc2ccccc2N1C(=O)CCl`, the inhibition in data set [1] and in data set [2] was 8% throughout.
For the molecule `O=C1CN(C(=O)CCl)c2ccccc2N1`, the inhibition was determined as 24% in data set [1] and 32% in data set [2].
Turning to `CC(C)COC(=O)N1c2ccccc2NC(=O)[C@@H]1C`, the selectivity ratio in data set [8] worked out at 74. Besides, the inhibition came to 13% in data set [5], 37% in data set [1] and 64% in data set [2]. The 50% inhibitory concentration (IC50) in data set [6] came out at 64 µM. In data set [3], the EC50 is 1.58 µM. The CC50 at 96 h in data set [4] was 117 µM. Also, in data set [7], the Selectivity ratio turned out to be 5.
Take `CC(=O)N1CC(=O)Nc2ccccc21`: the inhibition in data set [1] amounted to 7%; in data set [2], 56%.
Taken in the same sequence, the figures for `C[C@H]1C(=O)Nc2ccccc2N1C(=O)CCCl` were 15% and 28%.

Source of the values: ChEMBL document CHEMBL4765246, “Design, synthesis and biological evaluation of quinoxaline compounds as anti-HIV agents targeting reverse transcriptase enzyme” (Eur J Med Chem, 2020).
